According to US5023082A, “Sustained-release pharmaceutical compositions” (Yissum Research Development Company of the Hebrew …, priority 1986, dated 1991):

Test: Comparison of release rate of agents/salts from film-like implants
Assay type: physicochemical
Text: The amount of the pharmacological agent added to the implant will vary, in a manner understood by those of ordinary skill in the art, depending upon such criteria as: […] The above criteria will depend upon such factors as the patient's age, height, weight, sex, medical history, etc. The pharmacological agent must be present in an amount sufficient to impart therapeutic effect to the pharmaceutical composition. The nature of the active agent in the implant also plays an important role in the control release mechanism. […] Different salts of the same active agent may be released at different rates.

Release rate from film-like implant compared with tetracycline HCl (20% w/w per protein, same implant containing 20% w/w tetracycline HCl): more slowly
Release rate from film-like implants compared with chlorhexidine HCl (same formulation, 20% (w/w) chlorhexidine per protein): more slowly
SMILES: N=C(NCCCCCCNC(=N)NC(=N)Nc1ccc(Cl)cc1)NC(=N)Nc1ccc(Cl)cc1 [chlorhexidine acetate]
